Experimental data published in US10370338B2, “Benzazepine dicarboxamide compounds with tertiary amide function” (Hoffmann-La Roche Inc., priority 2016, dated 2019).

Legend:
human TLR8 = human TLR8 (Homo sapiens (Human), UniProt Q9NR97); experiment: HEK-Blue human TLR8 cells NF-κB SEAP reporter assay; format: cell-based; conditions: stimulation for 20 hours
Excerpt: (§1) For TLR8 and TLR7 activity testing, HEK-Blue human TLR8 or TLR7 cells (Invivogen, San Diego, Calif., USA) are used, respectively. These cells are designed for studying the stimulation of human TLR8 or TLR7 by monitoring the activation of NF-κB. A SEAP (secreted embryonic alkaline phosphatase) reporter gene is placed under the control of the IFN-b minimal promoter fused to five NF-κB and AP-1-binding sites. Therefore the reporter expression is regulated by the NF-κB promoter upon stimulation of human TLR8 or TLR7 for 20 hours. The cell culture supernatant SEAP reporter activity was determined using Quanti Blue kit (Invivogen, San Diego, Ca, USA) at a wavelength of 640 nm, a detection medium that turns purple/blue in the presence of alkaline phosphatase. EC50 values were determined using Activity Base analysis (ID Business Solution, Limited).

human TLR7 = human TLR7 (Homo sapiens (Human), UniProt Q9NYK1); experiment: HEK-Blue human TLR7 cells NF-κB SEAP reporter assay; format: cell-based; conditions: stimulation for 20 hours
Excerpt: as §1

Chain of human TLR8 (Q9NR97 27-1041): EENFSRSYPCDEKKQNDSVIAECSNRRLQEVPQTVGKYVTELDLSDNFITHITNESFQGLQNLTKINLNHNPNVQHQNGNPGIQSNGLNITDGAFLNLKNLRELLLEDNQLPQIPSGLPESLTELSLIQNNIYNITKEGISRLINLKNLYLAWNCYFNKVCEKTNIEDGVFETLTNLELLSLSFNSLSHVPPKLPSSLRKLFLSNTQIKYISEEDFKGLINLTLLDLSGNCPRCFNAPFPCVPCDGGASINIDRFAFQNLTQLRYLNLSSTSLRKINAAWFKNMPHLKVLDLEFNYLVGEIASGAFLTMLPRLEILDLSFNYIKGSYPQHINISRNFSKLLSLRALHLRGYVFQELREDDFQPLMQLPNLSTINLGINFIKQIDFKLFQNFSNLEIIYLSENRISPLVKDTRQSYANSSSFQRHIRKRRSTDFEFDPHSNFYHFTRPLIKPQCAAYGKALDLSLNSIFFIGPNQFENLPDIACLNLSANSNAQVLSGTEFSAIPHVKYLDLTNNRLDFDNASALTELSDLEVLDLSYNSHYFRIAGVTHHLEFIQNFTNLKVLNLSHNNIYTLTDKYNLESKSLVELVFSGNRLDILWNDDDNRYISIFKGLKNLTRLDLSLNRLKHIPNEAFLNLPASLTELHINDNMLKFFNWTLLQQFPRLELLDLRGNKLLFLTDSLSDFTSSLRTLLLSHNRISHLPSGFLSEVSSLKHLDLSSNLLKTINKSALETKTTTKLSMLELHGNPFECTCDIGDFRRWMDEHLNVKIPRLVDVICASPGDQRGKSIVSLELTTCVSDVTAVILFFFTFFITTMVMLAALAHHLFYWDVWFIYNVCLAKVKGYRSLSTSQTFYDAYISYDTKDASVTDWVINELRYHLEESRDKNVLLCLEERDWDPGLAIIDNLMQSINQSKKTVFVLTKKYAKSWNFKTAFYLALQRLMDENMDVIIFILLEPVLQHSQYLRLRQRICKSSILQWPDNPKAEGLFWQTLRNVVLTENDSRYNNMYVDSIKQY
Chain of human TLR7 (Q9NYK1 27-1049): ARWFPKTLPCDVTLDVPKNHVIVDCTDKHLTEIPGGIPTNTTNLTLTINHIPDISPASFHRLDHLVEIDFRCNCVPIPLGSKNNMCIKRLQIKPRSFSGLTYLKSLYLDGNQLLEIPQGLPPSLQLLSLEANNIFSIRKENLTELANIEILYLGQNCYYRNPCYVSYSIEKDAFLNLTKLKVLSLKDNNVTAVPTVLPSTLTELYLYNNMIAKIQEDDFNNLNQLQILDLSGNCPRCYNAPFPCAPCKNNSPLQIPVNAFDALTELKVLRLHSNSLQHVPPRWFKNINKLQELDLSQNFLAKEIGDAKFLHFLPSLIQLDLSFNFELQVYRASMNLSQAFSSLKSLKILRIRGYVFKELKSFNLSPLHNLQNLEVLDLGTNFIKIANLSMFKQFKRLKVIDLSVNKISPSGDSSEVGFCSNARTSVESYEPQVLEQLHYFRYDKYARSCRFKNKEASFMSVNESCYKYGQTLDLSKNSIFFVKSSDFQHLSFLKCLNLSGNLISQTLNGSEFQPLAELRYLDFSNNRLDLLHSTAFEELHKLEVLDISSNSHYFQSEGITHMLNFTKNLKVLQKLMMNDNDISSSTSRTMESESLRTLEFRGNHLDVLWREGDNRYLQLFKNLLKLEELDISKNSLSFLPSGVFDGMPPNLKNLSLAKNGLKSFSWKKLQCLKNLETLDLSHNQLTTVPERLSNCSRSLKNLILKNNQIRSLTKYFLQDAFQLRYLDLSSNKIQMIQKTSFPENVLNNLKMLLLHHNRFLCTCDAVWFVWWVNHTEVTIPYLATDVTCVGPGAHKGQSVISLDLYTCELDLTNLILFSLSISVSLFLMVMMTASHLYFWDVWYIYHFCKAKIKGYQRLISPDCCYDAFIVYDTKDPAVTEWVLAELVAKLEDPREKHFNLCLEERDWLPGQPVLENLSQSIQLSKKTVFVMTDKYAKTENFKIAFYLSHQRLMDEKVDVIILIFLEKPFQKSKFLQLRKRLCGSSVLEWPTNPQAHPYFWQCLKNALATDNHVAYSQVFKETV

SMILES | EC50 (human TLR8) | EC50 (human TLR7)
CCCN(CCC)C(=O)C1=Cc2ccc(C(=O)N3CC(CNc4ccccc4)C3)cc2N=C(N)C1 [Example 4, 2-Amino-8-[3-(anilinomethyl)azetidine-1-carbonyl]-N,N-dipropyl-3H-1-benzazepine-4-carboxamide] | 10 nM | 10000 nM
CCCN(CCC)C(=O)C1=Cc2ccc(C(=O)N3CC4(C3)CN(c3ccc(C)cc3)C4)cc2N=C(N)C1 [Example 1, 2-Amino-N,N-dipropyl-8-[6-(p-tolyl)-2,6-diazaspiro[3.3]heptane-2-carbonyl]-3H-1-benzazepine-4-carboxamide] | 5 nM | > 100000 nM
CCCN(CCC)C(=O)C1=Cc2ccc(C(=O)N3CCN(c4ccccc4)CC3)cc2N=C(N)C1 [Example 6, 2-Amino-8-(4-phenylpiperazine-1-carbonyl)-N,N-dipropyl-3H-1-benzazepine-4-carboxamide] | 25 nM | 9000 nM
CCCN(CCC)C(=O)C1=Cc2ccc(C(=O)N3CCC(Nc4ccccc4)C3)cc2N=C(N)C1 (stereo not drawn) [Example 5, 2-Amino-8-(3-anilinopyrrolidine-1-carbonyl)-N,N-dipropyl-3H-1-benzazepine-4-carboxamide] | 4 nM | 14000 nM
CCCN(CCC)C(=O)C1=Cc2ccc(C(=O)N3CCC(NCc4ccccc4)C3)cc2N=C(N)C1 (stereo not drawn) [Example 19, 2-Amino-8-[3-(benzylamino)pyrrolidine-1-carbonyl]-N,N-dipropyl-3H-1-benzazepine-4-carboxamide] | 14 nM | 6600 nM
CCCN(CCC)C(=O)C1=Cc2ccc(C(=O)N3CC4(CCN(c5ccccc5)CC4)C3)cc2N=C(N)C1 [Example 14, 2-Amino-8-(7-phenyl-2,7-diazaspiro[3.5]nonane-2-carbonyl)-N,N-dipropyl-3H-1-benzazepine-4-carboxamide] | 9 nM | 33000 nM
CCCN(CCC)C(=O)C1=Cc2ccc(C(=O)N3CC(NCc4ccccc4)C3)cc2N=C(N)C1 [Example 17, 2-Amino-8-[3-(benzylamino)azetidine-1-carbonyl]-N,N-dipropyl-3H-1-benzazepine-4-carboxamide] | 18 nM | 17000 nM
CCCN(CC1CC1)C(=O)C1=Cc2ccc(C(=O)N3CCC(Nc4ccccc4)CC3)cc2N=C(N)C1 [Example 9, 2-Amino-8-(4-anilinopiperidine-1-carbonyl)-N-(cyclopropylmethyl)-N-propyl-3H-1-benzazepine-4-carboxamide] | 20 nM | 18000 nM
CCCN(CCC)C(=O)C1=Cc2ccc(C(=O)N3CCC(CNc4ccccc4)C3)cc2N=C(N)C1 (stereo not drawn) [Example 21, 2-Amino-8-[3-(anilinomethyl)pyrrolidine-1-carbonyl]-N,N-dipropyl-3H-1-benzazepine-4-carboxamide] | 9 nM | 6980 nM
CCCN(CCC)C(=O)C1=Cc2ccc(C(=O)N3CCC(Nc4ccccc4)CC3)cc2N=C(N)C1 [Example 2, 2-Amino-8-(4-anilinopiperidine-1-carbonyl)-N,N-dipropyl-3H-1-benzazepine-4-carboxamide] | 6 nM | 7900 nM
CCCN(CCC)C(=O)C1=Cc2ccc(C(=O)N3CC4CN(c5ccccc5)C4C3)cc2N=C(N)C1 (stereo not drawn) [Example 16, 2-Amino-8-(6-phenyl-3,6-diazabicyclo[3.2.0]heptane-3-carbonyl)-N,N-dipropyl-3H-1-benzazepine-4-carboxamide] | 29 nM | 12000 nM
CCCN(CCC)C(=O)C1=Cc2ccc(C(=O)N3CCCC3)cc2N=C(N)C1 [Example 8, 2-Amino-N,N-dipropyl-8-(pyrrolidine-1-carbonyl)-3H-1-benzazepine-4-carboxamide] | 15 nM | 21000 nM
CCCN(CCC)C(=O)C1=Cc2ccc(C(=O)N3CCCC(NCc4ccccc4)C3)cc2N=C(N)C1 (stereo not drawn) [Example 24, 2-Amino-8-[3-(benzylamino)piperidine-1-carbonyl]-N,N-dipropyl-3H-1-benzazepine-4-carboxamide] | 14 nM | 3100 nM
CCCN(CCC)C(=O)C1=Cc2ccc(C(=O)N3CCCC(Nc4ccccc4)C3)cc2N=C(N)C1 (stereo not drawn) [Example 23, 2-Amino-8-(3-anilinopiperidine-1-carbonyl)-N,N-dipropyl-3H-1-benzazepine-4-carboxamide] | 8 nM | 400 nM
CCCN(CCC)C(=O)C1=Cc2ccc(C(=O)N3CC(Nc4ccccc4)C3)cc2N=C(N)C1 [Example 3, 2-Amino-8-(3-anilinoazetidine-1-carbonyl)-N,N-dipropyl-3H-1-benzazepine-4-carboxamide] | 5 nM | 24000 nM
CCCN(CCC)C(=O)C1=Cc2ccc(C(=O)N3CCN(Cc4ccccc4)CC3)cc2N=C(N)C1 [Example 10, 2-Amino-8-(4-benzylpiperazine-1-carbonyl)-N,N-dipropyl-3H-1-benzazepine-4-carboxamide] | 5 nM | 14000 nM
CCCN(CCC)C(=O)C1=Cc2ccc(C(=O)N3CC4CCC(C3)N4c3ccccc3)cc2N=C(N)C1 [Example 15, 2-Amino-8-(8-phenyl-3,8-diazabicyclo[3.2.1]octane-3-carbonyl)-N,N-dipropyl-3H-1-benzazepine-4-carboxamide] | 10 nM | 16000 nM
CCCN(CCC)C(=O)C1=Cc2ccc(C(=O)N3CCC(CNc4ccccc4)CC3)cc2N=C(N)C1 [Example 20, 2-amino-8-[4-(anilinomethyl)piperidine-1-carbonyl]-N,N-dipropyl-3H-1-benzazepine-4-carboxamide] | 20 nM | 10000 nM
CCCN(CCC)C(=O)C1=Cc2ccc(C(=O)N3CC4CC(C3)N4c3ccccc3)cc2N=C(N)C1 [Example 12, 2-Amino-8-(6-phenyl-3,6-diazabicyclo[3.1.1]heptane-3-carbonyl)-N,N-dipropyl-3H-1-benzazepine-4-carboxamide] | 22 nM | 11000 nM
CCCN(CCC)C(=O)C1=Cc2ccc(C(=O)N3CC4(CCN(c5ccccc5)C4)C3)cc2N=C(N)C1 [Example 7, 2-Amino-8-(7-phenyl-2,7-diazaspiro[3.4]octane-2-carbonyl)-N,N-dipropyl-3H-1-benzazepine-4-carboxamide] | 10 nM | > 100000 nM
CCCCOC1CN(C(=O)c2ccc3c(c2)N=C(N)CC(C(=O)N(CCC)CCC)=C3)C1 [Example 25, 2-Amino-8-(3-butoxyazetidine-1-carbonyl)-N,N-dipropyl-3H-1-benzazepine-4-carboxamide] | 8 nM | 31100 nM
CCCN(CCC)C(=O)C1=Cc2ccc(C(=O)N3CCC4(CC3)CN(c3ccccc3)C4)cc2N=C(N)C1 [Example 13, 2-Amino-8-(2-phenyl-2,7-diazaspiro[3.5]nonane-7-carbonyl)-N,N-dipropyl-3H-1-benzazepine-4-carboxamide] | 7 nM | > 100000 nM
CCCN(CCC)C(=O)C1=Cc2ccc(C(=O)N3CCC(Nc4ccc(CN)cc4)C3)cc2N=C(N)C1 (stereo not drawn) [Example 18, 2-Amino-8-[3-[4-(aminomethyl)anilino]pyrrolidine-1-carbonyl]-N,N-dipropyl-3H-1-benzazepine-4-carboxamide] | 31 nM | > 100000 nM
C/C=C/COC1CN(C(=O)c2ccc3c(c2)N=C(N)CC(C(=O)N(CCC)CCC)=C3)C1 [Example 22, 2-Amino-8-[3-[(E)-but-2-enoxy]azetidine-1-carbonyl]-N,N-dipropyl-3H-1-benzazepine-4-carboxamide] | 12 nM | 32000 nM
